Data taken from patent US8883410B2, “Method for determining the stability of organic methyleneamines in the presence of semicarbazide-sensitive amine oxidase” (Sanofi, priority 2007, dated 2014).

Target: T1, human SSAO T1 (Gly27-Asn763), untagged (Homo sapiens, UniProt Q16853)
T1 construct: T1 (Gly27-Asn763) Representing the Enzyme Lacking the Membrane Anchoring Region; additional N-terminal Met (N); expressed in transfected cells; cell lysate
T1 sequence (Q16853 27-763): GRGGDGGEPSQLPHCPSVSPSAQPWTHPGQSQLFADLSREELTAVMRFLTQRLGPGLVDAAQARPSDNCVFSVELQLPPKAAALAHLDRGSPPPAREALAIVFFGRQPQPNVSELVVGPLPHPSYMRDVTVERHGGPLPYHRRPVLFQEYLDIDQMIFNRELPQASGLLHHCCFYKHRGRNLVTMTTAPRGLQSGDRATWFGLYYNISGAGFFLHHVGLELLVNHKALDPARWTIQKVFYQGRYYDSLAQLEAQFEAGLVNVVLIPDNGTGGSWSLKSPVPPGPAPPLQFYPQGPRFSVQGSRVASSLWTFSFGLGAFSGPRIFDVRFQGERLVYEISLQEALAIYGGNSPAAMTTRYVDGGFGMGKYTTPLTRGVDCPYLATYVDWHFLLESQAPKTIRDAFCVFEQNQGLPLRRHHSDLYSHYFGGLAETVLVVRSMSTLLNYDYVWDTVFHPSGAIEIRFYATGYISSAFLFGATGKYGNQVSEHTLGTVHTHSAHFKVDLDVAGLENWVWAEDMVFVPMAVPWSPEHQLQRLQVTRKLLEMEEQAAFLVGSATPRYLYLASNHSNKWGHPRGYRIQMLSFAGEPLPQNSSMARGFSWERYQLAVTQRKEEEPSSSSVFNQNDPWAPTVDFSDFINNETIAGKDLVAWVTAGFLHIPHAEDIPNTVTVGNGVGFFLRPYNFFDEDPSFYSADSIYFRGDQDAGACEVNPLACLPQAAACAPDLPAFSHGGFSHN
Experiment: Benzylamine stability in lysate of cells expressing T1 SSAO (untagged), LC/MS/MS
Format: in vitro ADME
Experimental: 3) T1 (Gly27-Asn763) Representing the Enzyme Lacking the Membrane Anchoring Region:
The expression constructs were prepared by cloning these PCR products into the pCDNA5-FRT-To-DEST vector (Invitrogen, Gateway System™). The forward and reverse DNA sequence of each construct was confirmed including expressed sequences and at least 100 base pairs either side of this. Stable cell lines for Flp-In CHO, Flp-In CHO T-Rex, and Flp-In HEK 293 (Invitrogen, Flp-In system™) were generated using these 6 constructs according to manufacturer's instructions. Cells were co-transfected with the regulatory vector, pOG44, and each of the pCDNA5-FRT-To-DEST constructs using Lipfectamine (Invitrogen) according to manufacturer's instructions. Thus, 18 cell lines were generated: CHO Flp-In full-length SSAO; CHO Flp-In full-length SSAO with C-terminal 6×HIS tag; CHO Flp-In T1 SSAO; CHO Flp-In T1 SSAO with C-terminal 6×HIS tag; CHO Flp-In T2 SSAO; CHO Flp-In T2 SSAO with C-terminal 6×HIS tag; CHO T-Rex Flp-In full-length SSAO; CHO T-Rex Flp-In full-length SSAO with C-terminal 6×HIS tag; CHO T-Rex Flp-In T1 SSAO; CHO T-Rex Flp-In T1 SSAO with C-terminal 6×HIS tag; CHO T-Rex Flp-In T2 SSAO; CHO Flp-In T2 SSAO with C-terminal 6×HIS tag; HEK 293 Flp-In full-length SSAO; HEK 293 Flp-In full-length SSAO with C-terminal 6×HIS tag; HEK 293 Flp-In T1 SSAO; HEK 293 Flp-In T1 SSAO with C-terminal 6×HIS tag; HEK 293 Flp-In T2 SSAO; HEK 293 Flp-In T2 SSAO with C-terminal 6×HIS tag.
Adherent CHO cells were cultured at 37° C., 5% CO2 in media containing Ham's F12, 10% fetal bovine serum, 2 mM L-glutamine, 1% Penicillin/Streptomycin, 300 μM hygromycin B. Adherent HEK 293 cells were cultured at 37° C., 5% CO2 in D-MEM (high glucose), 10% fetal bovine serum, 2 mM L-glutamine, and 200 μM hygromycin B. Stable transformants were identified by loss of zeocin resistance. Once the cells were 80% confluent, SSAO expression was induced by the addition of Tetracycline to 1 μg/mL. Following 18 hours, the cells were harvested using a trypsin treatment of 3 minutes, at room temperature. Cells were washed 3 times in phosphate buffered saline before flash freezing in liquid nitrogen.
For the preparation of cell lysate for activity testing, frozen cell pellets were resuspended in lysate buffer containing 10 mM Tris-HCl (pH 7.2), 150 mM NaCl, 1.5 mM MgCl2, 1% v/v NP-40 and incubated for 15 minutes on ice. Lysate was cleared by centrifugation 800×g for 10 minutes, 4° C. and stored in aliquots at −80° C. until use. Proteins were determined using Pierce Coomassie Protein Reagent, according to manufacturer's instructions.
For each assay run, 1 mL of cell lysate (1.5 mg/mL protein) was mixed with benzylamine to 2000 ng/mL final concentration. At each corresponding time point, […] the incubation mixture was transferred to a microcentrifuge tube (1.7 mL) and mixed with 50 μL of acetonitrile. The tubes were vortex mixed briefly to ensure complete mixing and then centrifuged at 10,000×g for 5 minutes. The supernatant was removed and 50 μL was transferred to an autosampler vial and mixed with 50 μL of water before LC/MS/MS analysis. Benzylamine remaining in the lysate was analyzed with LC/MS/MS method.
LC/MS/MS analysis was performed with a PE Sciex API 3000 mass spectrometer under the following conditions listed below and in Tables 1 and 2: […]

Benzylamine Remaining (%) (CHO Flp-In T-Rex lysate, tag One, 0 min): 100%
Benzylamine Remaining (%) (CHO Flp-In T-Rex lysate, tag One, 10 min): 104%
Benzylamine Remaining (%) (CHO Flp-In T-Rex lysate, tag One, 2 h): 92%
Benzylamine Remaining (%) (CHO Flp-In lysate, tag None, 0 min): 100%
Benzylamine Remaining (%) (CHO Flp-In lysate, tag None, 10 min): 109%
Benzylamine Remaining (%) (CHO Flp-In lysate, tag None, 2 h): 103%
Benzylamine Remaining (%) (HEK293 lysate, tag None, 0 min): 100%
Benzylamine Remaining (%) (HEK293 lysate, tag None, 10 min): 105%
Benzylamine Remaining (%) (HEK293 lysate, tag None, 2 h): 102%
Structure (SMILES): NCc1ccccc1 [Benzylamine]
